{
  "source": "patent US10772929B2",
  "about": "“Use of peptide compounds in treating acute pancreatitis” (SHENZHEN HIGHTIDE BIOPHARMACEUTICAL, LTD., priority 2017, dated 2020)",
  "key": {"[1]": {"tested_on": "sodium taurocholate-induced severe acute pancreatitis (SAP) rat model", "test": "Sodium taurocholate-induced severe acute pancreatitis (SAP) rat model", "format": "in vivo", "conditions": "SAP rats; for Survival Rate: 3-day experiment; for Survival rate of model animals versus model control (in words): all three doses (0.05, 0.25, 1.25 mg/kg); for Pathological score: Area of necrosis / Pathological score: Edema / Pathological score: Hemorrhage / Pathological score: Inflammation: Schmidt's scoring standard 0-4; for Pathological score: Total damage: sum of the four items", "source_text": "After at least 7 days of accumulation period, 60 female and 70 male Sprague-Dawley (SD) rats were included in the study. Five females and eight males were randomly selected as the control group. Another five females and eight males were randomly selected as the sham group, the abdominal cavity was opened for each of the rats in the sham group, and a cotton swab was used to gently flip the duodenum and pancreas, then the abdominal muscle and skin were sutured after the completion of the operation The remaining animals were assigned to establish the severe acute pancreatitis (SAP) rat model using the method of retrograde injection of sodium taurocholate solution with 35 mg/kg dosage into the biliopancreatic duct. The model animals were randomly divided into 4 groups of 24 rats each (male:female=1:1) on the day after model establishment, which were the model control group (vehicle), and low dose group of peptide 12 (0.05 mg/kg), middle dose group of peptide 12 (0.25 mg/kg) and high dose group of peptide 12 (1.25 mg/kg), peptide 12 was dissolved in saline.\nThe animals were subcutaneously injected once on the day after the establishment of the model, once on the second day, for a total of 2 consecutive days, and the experimental period was 3 days. During the experiment, the animals were observed by cage, including if there is any animal death or near death, mental state, behavioral activities, fecal characteristics, skin, hair, eyes, ears, nose, abdomen, external genitals, anus, limbs, feet, respiration, etc. At the end of the experiment, all the surviving rats were weighed and blood samples were collected to detect the levels of amylase, calcium and lipase in serum of rats in each group. The general anatomical observation was made, focusing on the status of pancreas, gastrointestinal tract, ascites, bile duct obstruction, pulmonary congestion and saponification spots. The pancreas was preserved in 10% formalin fixative for further pathological analysis.\nThe severity of pancreatic injury was assessed by preparing HE slices of pancreas and using Schmidt's scoring standard to evaluate the pathological changes of pancreatic edema, inflammation, hemorrhage and necrosis. The total pancreatic injury calculated as the sum of the above four items."}, "[2]": {"tested_on": "caerulein-induced acute pancreatitis (AP) model", "test": "Caerulein-induced acute pancreatitis (AP) mouse model", "format": "in vivo, BALB/c mice", "conditions": "caerulein AP mice; for Pathological score: Area of necrosis / Pathological score: Edema / Pathological score: Hemorrhage / Pathological score: Inflammation: Schmidt's scoring standard; for Edema of the pancreas versus model group (in words): FIG. 12; for Inflammation of the pancreas versus model group (in words): FIG. 13; for Level of amylase versus model control / Level of lipase versus model control: doses of 0.025, 0.25, 2.5 and 25 mg/kg; for Level of amylase versus model control: FIG. 10, P<0.001; for Level of lipase versus model control: FIG. 11, P<0.001", "protocol": "Male BALB/c mice, aged 6-8 weeks, were accumulated for more than 7 days. After fasting overnight, 10 animals were randomly selected as normal control. The remaining animals were injected with caerulein 50 μg/kg intraperitoneally every 1 hour for 10 times to induce acute pancreatitis, and they were randomly divided into model control group and peptide 12 treatment groups with the dosage of 0.025, 0.25, 2.5 and 25 mg/kg respectively, there were 10 mice in each group. Mice were given corresponding doses of peptide 12 or normal saline 5 minutes before the fourth injection of caerulein.\nThe experiment was finished one hour after the 10th injection of caerulein, blood samples were collected for the determination of amylase and lipase levels. Pancreas were weighed and fixed in 10% formalin solution for subsequent pathological analysis.\nThe pancreatic index was calculated as pancreatic weight/body weight, which reflected the severity of pancreatic edema. The statistical results were shown in FIG. 9, in which ### means P<0.001 compared with the normal control group; ** means P<0.01 compared with the model control group, *** means P<0.001 compared with the model control group. […] It should be noted that in FIG. 10, ### means P<0.001 compared with the normal control group; *** means P<0.001 compared with the model control group; in FIG. 11, ### means P<0.001 compared with the normal control group; *** means P<0.001 compared with the model control group.\nThe severity of pancreatic injury was assessed by preparing HE slices of pancreas and using Schmidt's scoring standard to evaluate the pathological changes of pancreatic edema, inflammation, hemorrhage and necrosis."}, "[3]": {"conditions": "listed as Ac-IGLHD PSHGT LPAGS-OH"}},
  "data": [
    {"substance": "Ac-IGLHDPSHGTLPAGS-OH [Peptide 12]", "values": [
      {"measurement": "Ratio (treatment group/model group) of survival", "setting": "[1]; 0.05 mg/kg", "value": 1.11},
      {"measurement": "Survival Rate", "setting": "[1]; 0.05 mg/kg subcutaneous once daily for 2 days", "value": 41.7, "unit": "%"},
      {"measurement": "Ratio (treatment group/model group) of survival", "setting": "[1]; 0.25 mg/kg", "value": 1.33},
      {"measurement": "Survival Rate", "setting": "[1]; 0.25 mg/kg subcutaneous once daily for 2 days", "value": 50.0, "unit": "%"},
      {"measurement": "Ratio (treatment group/model group) of survival", "setting": "[1]; 1.25 mg/kg", "value": 1.78},
      {"measurement": "Survival Rate", "setting": "[1]; 1.25 mg/kg subcutaneous once daily for 2 days, 1.25 mg/kg", "value": 66.7, "unit": "%"},
      {"measurement": "Pathological changes of pancreas caused by sodium taurocholate", "setting": "[1]; FIG. 4 to FIG. 8, dose-dependent", "value": "reduce"},
      {"measurement": "Survival rate of model animals versus model control (in words)", "setting": "[1]; [3]", "value": "significantly increase"},
      {"measurement": "Survival rate of model animals versus model control (in words)", "setting": "[1]; listed as peptide 12", "value": "improved"},
      {"measurement": "Pathological score: Area of necrosis", "setting": "[1]; high dose (1.25 mg/kg)", "value": "1.13 ± 0.85"},
      {"measurement": "Pathological score: Edema", "setting": "[1]; high dose (1.25 mg/kg)", "value": "1.21 ± 0.96"},
      {"measurement": "Pathological score: Hemorrhage", "setting": "[1]; high dose (1.25 mg/kg)", "value": "1.15 ± 0.83"},
      {"measurement": "Pathological score: Inflammation", "setting": "[1]; high dose (1.25 mg/kg)", "value": "2.67 ± 1.00"},
      {"measurement": "Pathological score: Total damage", "setting": "[1]; high dose (1.25 mg/kg)", "value": "6.15 ± 2.69"},
      {"measurement": "Pathological score: Area of necrosis", "setting": "[1]; low dose (0.05 mg/kg)", "value": "1.63 ± 0.74"},
      {"measurement": "Pathological score: Edema", "setting": "[1]; low dose (0.05 mg/kg)", "value": "1.33 ± 0.86"},
      {"measurement": "Pathological score: Hemorrhage", "setting": "[1]; low dose (0.05 mg/kg)", "value": "1.73 ± 0.89"},
      {"measurement": "Pathological score: Inflammation", "setting": "[1]; low dose (0.05 mg/kg)", "value": "2.90 ± 1.22"},
      {"measurement": "Pathological score: Total damage", "setting": "[1]; low dose (0.05 mg/kg)", "value": "7.60 ± 3.07"},
      {"measurement": "Pathological score: Area of necrosis", "setting": "[1]; middle dose (0.25 mg/kg)", "value": "1.11 ± 0.78"},
      {"measurement": "Pathological score: Edema", "setting": "[1]; middle dose (0.25 mg/kg)", "value": "1.44 ± 0.87"},
      {"measurement": "Pathological score: Hemorrhage", "setting": "[1]; middle dose (0.25 mg/kg)", "value": "1.31 ± 0.87"},
      {"measurement": "Pathological score: Inflammation", "setting": "[1]; middle dose (0.25 mg/kg)", "value": "2.83 ± 0.93"},
      {"measurement": "Pathological score: Total damage", "setting": "[1]; middle dose (0.25 mg/kg)", "value": "6.69 ± 2.53"},
      {"measurement": "Mental state and activity state of the surviving animals versus model control", "setting": "[1]; treatment groups 0.05, 0.25, 1.25 mg/kg", "value": "significantly better"},
      {"measurement": "General anatomy of surviving animals (pancreas edema and liquefaction, gastrointestinal obstruction, ascites volume, bile duct obstruction, pulmonary congestion, saponification spots)", "setting": "[1]; treatment groups versus control group", "value": "improved with varying degrees"},
      {"measurement": "Level of amylase in blood versus model control", "setting": "[1]; treatment groups, FIG. 2", "value": "decreased"},
      {"measurement": "Level of lipase in blood versus model control", "setting": "[1]; treatment groups, FIG. 3", "value": "decreased"},
      {"measurement": "Pathological score: Area of necrosis", "setting": "[2]; 0.025 mg/kg", "value": "0.00 ± 0.00"},
      {"measurement": "Pathological score: Edema", "setting": "[2]; 0.025 mg/kg", "value": "1.50 ± 0.84"},
      {"measurement": "Pathological score: Hemorrhage", "setting": "[2]; 0.025 mg/kg", "value": "0.00 ± 0.00"},
      {"measurement": "Pathological score: Inflammation", "setting": "[2]; 0.025 mg/kg", "value": "1.33 ± 0.52"},
      {"measurement": "Pathological score: Area of necrosis", "setting": "[2]; 0.25 mg/kg", "value": "0.00 ± 0.00"},
      {"measurement": "Pathological score: Edema", "setting": "[2]; 0.25 mg/kg", "value": "1.67 ± 0.82"},
      {"measurement": "Pathological score: Hemorrhage", "setting": "[2]; 0.25 mg/kg", "value": "0.00 ± 0.00"},
      {"measurement": "Pathological score: Inflammation", "setting": "[2]; 0.25 mg/kg", "value": "1.17 ± 0.75"},
      {"measurement": "Pathological score: Area of necrosis", "setting": "[2]; 2.5 mg/kg", "value": "0.00 ± 0.00"},
      {"measurement": "Pathological score: Edema", "setting": "[2]; 2.5 mg/kg", "value": "1.17 ± 1.17"},
      {"measurement": "Pathological score: Hemorrhage", "setting": "[2]; 2.5 mg/kg", "value": "0.00 ± 0.00"},
      {"measurement": "Pathological score: Inflammation", "setting": "[2]; 2.5 mg/kg", "value": "0.83 ± 0.75"},
      {"measurement": "Pathological score: Area of necrosis", "setting": "[2]; 25 mg/kg", "value": "0.00 ± 0.00"},
      {"measurement": "Pathological score: Edema", "setting": "[2]; 25 mg/kg", "value": "1.50 ± 0.55"},
      {"measurement": "Pathological score: Hemorrhage", "setting": "[2]; 25 mg/kg", "value": "0.33 ± 0.82"},
      {"measurement": "Pathological score: Inflammation", "setting": "[2]; 25 mg/kg", "value": "2.17 ± 0.75"},
      {"measurement": "Edema of the pancreas versus model group (in words)", "setting": "[2]; [3]", "value": "significantly reduced"},
      {"measurement": "Edema of the pancreas versus model group (in words)", "setting": "[2]; listed as peptide 12", "value": "alleviated"},
      {"measurement": "Inflammation of the pancreas versus model group (in words)", "setting": "[2]; [3]", "value": "significantly reduced"},
      {"measurement": "Inflammation of the pancreas versus model group (in words)", "setting": "[2]; listed as peptide 12", "value": "alleviated"},
      {"measurement": "Level of amylase versus model control", "setting": "[2]", "value": "significantly lowered"},
      {"measurement": "Level of amylase versus model control", "setting": "[2]; [3]", "value": "significantly reduced"},
      {"measurement": "Level of lipase versus model control", "setting": "[2]", "value": "significantly lowered"},
      {"measurement": "Level of lipase versus model control", "setting": "[2]; [3]", "value": "significantly reduced"},
      {"measurement": "Pancreatic index (pancreatic weight/body weight) versus model control", "setting": "[2]; doses of 0.025, 0.25 and 2.5 mg/kg, dose dependent, FIG. 9", "value": "significantly decreased"}
    ]}
  ]
}
